Here are results for ten compounds from PMC10586285 (ACS Omega, 2023).

The test system of one data set is Hep G2 cells. Nature of the data set: Anticancer test. The format is cell-based. The settings on record: for IC50: read-out: IC50 (Hep G2).
The next data set has as its target COX-1 (Homo sapiens, UniProt P23219). The experiment in a line: biochemical.
The target of the next data set is T1, COX-2 (Homo sapiens, UniProt P35354).
T1 sequence (P35354 18-604): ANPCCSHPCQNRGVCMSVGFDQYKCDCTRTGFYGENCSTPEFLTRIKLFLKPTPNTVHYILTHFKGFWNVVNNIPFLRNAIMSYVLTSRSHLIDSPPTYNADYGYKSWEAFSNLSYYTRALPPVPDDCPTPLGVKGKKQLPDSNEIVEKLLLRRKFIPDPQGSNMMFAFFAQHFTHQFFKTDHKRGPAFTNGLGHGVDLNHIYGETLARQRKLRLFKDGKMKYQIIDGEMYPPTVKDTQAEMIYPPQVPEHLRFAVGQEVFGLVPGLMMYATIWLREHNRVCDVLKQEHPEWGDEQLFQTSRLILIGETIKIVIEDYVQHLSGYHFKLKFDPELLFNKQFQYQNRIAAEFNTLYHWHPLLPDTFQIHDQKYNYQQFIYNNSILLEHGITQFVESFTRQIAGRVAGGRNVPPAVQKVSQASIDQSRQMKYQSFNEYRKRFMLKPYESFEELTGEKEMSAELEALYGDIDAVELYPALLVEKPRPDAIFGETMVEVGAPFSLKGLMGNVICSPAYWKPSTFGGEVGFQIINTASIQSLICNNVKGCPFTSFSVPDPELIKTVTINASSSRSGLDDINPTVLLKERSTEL
Nature of the data set: biochemical. The settings on record: for COX-2 selectivity: selectivity index = IC50 COX-1 / IC50 COX-2.

The next data set can be described thus: DPPH antioxidant. To be noted: for IC50: read-out: IC50 (Antioxidant), DPPH assay. Background: DPPH is a stable violet radical that fades when it is reduced.
For the next data set, the system named is Caco-2 cells. The experiment in a line: Anticancer test. The class given is cell-based. The settings on record: for IC50: read-out: IC50 (Caco-2 Cells).
The subject of a further data set is HeLa cells. The experiment in a line: Anticancer test. The class given is cell-based. To be noted: for IC50: read-out: IC50 (Hela Cells).
The conditions of data set [1]: cited from earlier work.
The conditions of data set [2]: cited from earlier work. The source holds these as a separate data set.
Where [3] appears, read: Hep G2 cells, MTS, 48 h, concentration range 100-20,000 nM.
The mark [4] stands for this setting: read-out: COX-1 IC50, human COX-1, ELISA kit.
[5] abbreviates: read-out: COX-2 IC50, human COX-2, ELISA kit.
[6] abbreviates: Caco-2 cells, MTS, 48 h, concentration range 100-20,000 nM.

Like-named read-outs stand apart in the source and are kept apart here.

COX-1, sequence (P23219 24-599): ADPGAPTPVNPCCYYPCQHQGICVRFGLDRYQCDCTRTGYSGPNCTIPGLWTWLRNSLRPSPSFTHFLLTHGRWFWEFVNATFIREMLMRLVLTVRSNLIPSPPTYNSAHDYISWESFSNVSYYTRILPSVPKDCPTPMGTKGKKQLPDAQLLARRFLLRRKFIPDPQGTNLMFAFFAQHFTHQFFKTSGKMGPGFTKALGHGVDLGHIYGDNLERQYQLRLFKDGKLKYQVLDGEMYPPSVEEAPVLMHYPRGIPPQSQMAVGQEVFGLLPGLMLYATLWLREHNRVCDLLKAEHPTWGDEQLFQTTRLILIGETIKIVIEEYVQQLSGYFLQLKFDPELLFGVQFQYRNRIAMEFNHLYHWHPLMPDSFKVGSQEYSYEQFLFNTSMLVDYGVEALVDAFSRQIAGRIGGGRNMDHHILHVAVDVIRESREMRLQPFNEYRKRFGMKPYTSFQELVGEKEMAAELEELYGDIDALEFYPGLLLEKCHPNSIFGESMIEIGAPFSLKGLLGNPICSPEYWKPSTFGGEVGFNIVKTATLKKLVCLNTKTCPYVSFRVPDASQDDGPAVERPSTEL

For orientation: IC50 means the midpoint of a concentration-inhibition curve. Turning to “9-Phenyl-9H-thioxanthen-9-ol [Compound 3]”, the 50% inhibitory concentration (IC50) turned out to be 0.438 ± 0.033 µM in the data set with Hep G2 cells (setting [3]), 0.0128 ± 0.00063 µM at COX-1 (setting [4]), 0.00769 ± 0.00055 µM at COX-2 (setting [5]) and 0.0096 ± 0.0011 µM in the data set with Caco-2 cells (setting [6]). The same compound came in with a COX-2 selectivity on COX-2 of 1.67. Besides, the “percentage inhibition of DPPH” value in “DPPH antioxidant” (conc 1 μg/mL) was 0.14 ± 0.02%; in the data set “DPPH antioxidant” (conc 2 μg/mL) it was 0.15 ± 0.01%; in “DPPH antioxidant” (conc 3 μg/mL), 0.15 ± 0.03%; in the data set “DPPH antioxidant” (conc 5 μg/mL), 0.29 ± 0.01%; in “DPPH antioxidant” (conc 7 μg/mL), 18.20 ± 1.40%; in the data set “DPPH antioxidant” (conc 10 μg/mL), 18.00 ± 2.37%. Also, the “percentage inhibition of DPPH” value in the data set “DPPH antioxidant” (conc 20 μg/mL) came to 15.60 ± 2.01%; in “DPPH antioxidant” (conc 30 μg/mL), 19.90 ± 1.0%; in “DPPH antioxidant” (conc 50 μg/mL), 20.00 ± 3.12%.
For 9-Phenyl-9H-xanthen-9-ol [Compound 4], the “inhibition against Hep G2 cells” value in the data set on Hep G2 cells (at 0.2 μM) came out at 100%. The IC50 was 0.4 ± 0.056 µM in the data set on Hep G2 cells (setting [3]); 0.00652 ± 0.00085 µM on COX-1 (setting [4]); 0.014 ± 0.0017 µM on COX-2 (setting [5]); 15.4 ± 6 µM in the data set “DPPH antioxidant”; 0.0246 ± 0.008 µM in the data set with Caco-2 cells (setting [6]). Besides, the “percentage inhibition of DPPH” value in the data set “DPPH antioxidant” (conc 1 μg/mL) was found to be 10 ± 0.01%; in the data set “DPPH antioxidant” (conc 2 μg/mL), 16.0 ± 0.02%; in the data set “DPPH antioxidant” (conc 3 μg/mL), 27.0 ± 0.01%; in the data set “DPPH antioxidant” (conc 5 μg/mL), 33.0 ± 1.21%; in the data set “DPPH antioxidant” (conc 7 μg/mL), 33.0 ± 2.13%; in the data set “DPPH antioxidant” (conc 10 μg/mL), 35.0 ± 2.31%. Also, the “percentage inhibition of DPPH” value in “DPPH antioxidant” (conc 20 μg/mL) turned out to be 35.0 ± 3.31%; in “DPPH antioxidant” (conc 30 μg/mL) it was 39.0 ± 5.51%; in the data set “DPPH antioxidant” (conc 50 μg/mL) it was 39.4 ± 2.44%. Moreover, the “inhibition against HeLa cells” value in the data set on HeLa cells (at 0.2 μM) came to 98%. Further, the “percentage inhibition against Caco-2 cells” value in the data set on Caco-2 cells (at 0.2 μM) turned out to be 98%.
For orientation: inhibition means the share of the control response that was lost under treatment. For `OC1(Cc2ccccc2)c2ccccc2Oc2ccccc21` [Compound 1, 9-Benzyl-9H-xanthen-9-ol], the “percentage inhibition of DPPH” value turned out to be 0.31 ± 0.02% in “DPPH antioxidant” (conc 1 μg/mL); 0.36 ± 0.02% in the data set “DPPH antioxidant” (conc 2 μg/mL); 0.36 ± 0.01% in “DPPH antioxidant” (conc 3 μg/mL); 0.31 ± 0.01% in the data set “DPPH antioxidant” (conc 5 μg/mL); 36.40 ± 4.11% in the data set “DPPH antioxidant” (conc 7 μg/mL); 36.40 ± 3.31% in “DPPH antioxidant” (conc 10 μg/mL). For the same compound, the “percentage inhibition of DPPH” value in the data set “DPPH antioxidant” (conc 20 μg/mL) is given as 40.20 ± 5.21%; in “DPPH antioxidant” (conc 30 μg/mL) it was 35.50 ± 1.01%; in “DPPH antioxidant” (conc 50 μg/mL), 35.10 ± 3.31%. The IC50 in the data set on HeLa cells (Homo sapiens, HeLa, 48 h) is 0.213 µM. Besides, the inhibition at 0.2 µM stood at 96% with HeLa cells (Homo sapiens, HeLa, read-out: inhibition against HeLa cells) and 96% in the data set on Caco-2 cells (Homo sapiens, Caco-2, read-out: percentage inhibition against Caco-2 cells).
For the compound `OC1(Cc2ccccc2)c2ccccc2Sc2ccccc21` [Compound 2, 9-Benzyl-9H-thioxanthen-9-ol], the IC50 with Hep G2 cells (Homo sapiens, HepG2, 48 h) was determined as 0.161 ± 0.041 µM; on COX-1, 0.00563 ± 0.00074 µM; against COX-2 it was 0.0072 ± 0.00058 µM. The inhibition at 0.2 µM with Hep G2 cells (Homo sapiens, HepG2, read-out: inhibition against Hep G2 cells) is 100%. This compound also returned a COX-2 selectivity on COX-2 of 0.78. Moreover, the “percentage inhibition of DPPH” value is 0.26 ± 0.01% in the data set “DPPH antioxidant” (conc 1 μg/mL); 0.26 ± 0.03% in the data set “DPPH antioxidant” (conc 2 μg/mL); 0.33 ± 0.04% in “DPPH antioxidant” (conc 3 μg/mL); 0.33 ± 0.01% in “DPPH antioxidant” (conc 5 μg/mL); 26.00 ± 7.20% in the data set “DPPH antioxidant” (conc 7 μg/mL); 27.00 ± 1.03% in “DPPH antioxidant” (conc 10 μg/mL). Moreover, the “percentage inhibition of DPPH” value worked out at 28.00 ± 2.14% in the data set “DPPH antioxidant” (conc 20 μg/mL), 29.00 ± 1.15% in “DPPH antioxidant” (conc 30 μg/mL) and 32.00 ± 3.75% in “DPPH antioxidant” (conc 50 μg/mL).
With `N[C@@H](CSC1(Cc2ccccc2)c2ccccc2Oc2ccccc21)C(=O)O` [Compound 5, S-(9-benzyl-9H-xanthen-9-yl)-L-cysteine], the “percentage inhibition of DPPH” value in the data set “DPPH antioxidant” (conc 1 μg/mL) was 5.0 ± 0.01%; in “DPPH antioxidant” (conc 2 μg/mL) it was 6.0 ± 0.02%; in “DPPH antioxidant” (conc 3 μg/mL), 7.0 ± 0.01%; in the data set “DPPH antioxidant” (conc 5 μg/mL), 7.0 ± 0.51%; in the data set “DPPH antioxidant” (conc 7 μg/mL), 7.0 ± 0.67%; in the data set “DPPH antioxidant” (conc 10 μg/mL), 7.0 ± 0.35%. Also, the “percentage inhibition of DPPH” value came to 11.4 ± 1.01% in the data set “DPPH antioxidant” (conc 20 μg/mL), 11.4 ± 2.10% in the data set “DPPH antioxidant” (conc 30 μg/mL) and 12.0 ± 1.33% in the data set “DPPH antioxidant” (conc 50 μg/mL).
As for `N[C@@H](CSC1(c2ccccc2)c2ccccc2Oc2ccccc21)C(=O)O` [Compound 6, S-(9-phenyl-9H-xanthen-9-yl)-L-cysteine], in the data set on Hep G2 cells (setting [3]), the “IC50 (Hep G2)” value is listed as “did not exhibit any inhibition”. Besides, the IC50 stood at 0.0424 ± 0.00058 µM against COX-1 and 0.13 ± 0.00171 µM against COX-2. Besides, at COX-2, the COX-2 selectivity amounted to 0.33. The “percentage inhibition of DPPH” value is given as 18.0 ± 1.02% in the data set “DPPH antioxidant” (conc 1 μg/mL); 18.0 ± 2.03% in “DPPH antioxidant” (conc 2 μg/mL); 22.0 ± 1.01% in “DPPH antioxidant” (conc 3 μg/mL); 28.0 ± 0.01% in the data set “DPPH antioxidant” (conc 5 μg/mL); 28.0 ± 0.01% in “DPPH antioxidant” (conc 7 μg/mL); 30.0 ± 0.01% in “DPPH antioxidant” (conc 10 μg/mL). Further, the “percentage inhibition of DPPH” value in “DPPH antioxidant” (conc 20 μg/mL), in “DPPH antioxidant” (conc 30 μg/mL) and in “DPPH antioxidant” (conc 50 μg/mL) was 30.0 ± 0.01% each time.
As to `N[C@@H](CSC1(c2ccccc2)c2ccccc2Sc2ccccc21)C(=O)O` [Compound 7, S-(9-phenyl-9H-thioxanthen-9-yl)-L-cysteine], the “IC50 (Hep G2)” value in the data set on Hep G2 cells (setting [3]) is listed as “did not exhibit any inhibition”. For the same compound, the IC50 stood at 0.0167 ± 0.00084 µM against COX-1 and 0.00437 ± 0.00078 µM against COX-2. This compound registered a COX-2 selectivity at COX-2 (listed as comp (7)) of 3.78. Further, the “percentage inhibition of DPPH” value was 22.0 ± 3.31% in the data set “DPPH antioxidant” (conc 1 μg/mL); 22.0 ± 3.11% in “DPPH antioxidant” (conc 2 μg/mL); 22.0 ± 2.22% in “DPPH antioxidant” (conc 3 μg/mL); 29.0 ± 4.22% in the data set “DPPH antioxidant” (conc 5 μg/mL); 22.0 ± 1.22% in “DPPH antioxidant” (conc 7 μg/mL); 26.0 ± 3.44% in the data set “DPPH antioxidant” (conc 10 μg/mL). The “percentage inhibition of DPPH” value was found to be 23.0 ± 1.11% in “DPPH antioxidant” (conc 20 μg/mL), 23.0 ± 1.21% in “DPPH antioxidant” (conc 30 μg/mL) and 23.0 ± 3.10% in “DPPH antioxidant” (conc 50 μg/mL). Also, in the data set on HeLa cells (HeLa cells, MTS, 48 h, concentration range 100-20,000 nM), the “IC50 (Hela Cells)” value is listed as “no activity”.
As to `N[C@@H](CSC(c1ccccc1)(c1ccccc1)c1ccccc1)C(=O)O` [STLC, S-trityl-L-cysteine], the permeability result in data set [1] is “poor”. For the same compound, the water solubility entry in data set [2] is “poor”.
Turning to `Cc1c(C)c2c(c(C)c1O)CCC(C)(C(=O)O)O2` (stereo not drawn) [Trolox, reference compound], the “percentage inhibition of DPPH” value in the data set “DPPH antioxidant” (conc 1 μg/mL) is listed as 37 ± 2.21%; in the data set “DPPH antioxidant” (conc 2 μg/mL), 54 ± 3.42%; in “DPPH antioxidant” (conc 3 μg/mL), 81 ± 4.25%; in the data set “DPPH antioxidant” (conc 5 μg/mL), 86 ± 5.33%; in the data set “DPPH antioxidant” (conc 7 μg/mL), 91 ± 7.52%; in “DPPH antioxidant” (conc 10 μg/mL), 92 ± 10.71%. For the same compound, the results for the “percentage inhibition of DPPH” value in “DPPH antioxidant” (conc 20 μg/mL), in “DPPH antioxidant” (conc 30 μg/mL) and in “DPPH antioxidant” (conc 50 μg/mL) were 93 ± 13.90%, 94 ± 10.89% and 94.5 ± 12.64%, respectively. Further, the IC50 in “DPPH antioxidant” came out at 6.07 ± 0.8 µM.
As for `COc1cccc2c1C(=O)c1c(O)c3c(c(O)c1C2=O)C[C@@](O)(C(=O)CO)C[C@@H]3O[C@H]1C[C@H](N)[C@H](O)[C@H](C)O1` [doxorubicin, reference compound], the 50% inhibitory concentration (IC50) with Hep G2 cells (Homo sapiens, HepG2, 48 h) is 1.06 ± 0.043 µM; in the data set with HeLa cells (Homo sapiens, HeLa, 48 h), 0.11 ± 0.015 µM; in the data set with Caco-2 cells (Homo sapiens, Caco-2, 48 h), 0.497 ± 0.00036 µM.
